Results reported in article PMC9945734 (BMC Medicine, 2023).
Structures can show the parent of a compound that is named as a salt. Where two headings read alike, the source gives them in different places.

System: PC-3-KQ cells
Experiment: 3D spheroid invasion assay and screening of FDA-approved drugs
Format: cell-based, human
Conditions: for Invasion rates (%) of each drug’s multiple concentrations (μM) / activity at 0.01 µM / activity at 0.1 µM / activity at 1 µM / activity at 10 µM: compared to vehicle control; for activity at 0.01 µM / activity at 0.1 µM / activity at 1 µM / activity at 10 µM: 72 h, read-out: Invasion rates (%) of each drug’s multiple concentrations
Procedure: The invasion assay was performed as previously described. […] The plates were then centrifuged at 320 g for 4 min to cluster cells in the bottom of wells and incubated for 3 days. On the fourth day, 40 μL medium was removed from each well, 40 μL of the matrigel-medium mixture was added to each well, and cells were cultured for another 3 days. […] At the end of the incubation, images were taken using a phase contrast microscope (Eclipse Ti2, Nikon, Tokyo, Japan) with 10× object lenses, and the total area of cells and the core sphere area of cells (Fig. 1a) were measured using the Image J software. The invading area was calculated using the following formula: invasion area = total area of cells – core sphere area.
For drug screening, drugs were added to the matrigel-medium mixture when replacing the culture medium on day 4. For the initial round of screening, a final concentration of 10 μM was used for all drugs. Multiple drug concentrations were used for the second round of screening, including 0, 0.001, 0.01, 0.1, 1, and 10 μM. Duplicate wells were repeated for each concentration.

[1] = 0.01 μM (first column so headed), secondary screening of 87 hit compounds (Table S1)
[2] = 0.01 μM (second column so headed), secondary screening of 87 hit compounds (Table S1)
[3] = 0.1 μM, secondary screening of 87 hit compounds (Table S1)
[4] = 1 μM, secondary screening of 87 hit compounds (Table S1)
[5] = 10 μM, secondary screening of 87 hit compounds (Table S1)
[6] = Homo sapiens, 0.01 μM (first column so headed), secondary screening of 87 hit compounds (Table S1)
[7] = Homo sapiens, 0.01 μM (first column so headed), third screening of 25 hit compounds (Table S2)
[8] = Homo sapiens, 0.01 μM (second column so headed), secondary screening of 87 hit compounds (Table S1)
[9] = Homo sapiens, 0.01 μM (second column so headed), third screening of 25 hit compounds (Table S2)
[10] = Homo sapiens, 0.1 μM, secondary screening of 87 hit compounds (Table S1)
[11] = Homo sapiens, 0.1 μM, third screening of 25 hit compounds (Table S2)
[12] = Homo sapiens, 1 μM, secondary screening of 87 hit compounds (Table S1)
[13] = Homo sapiens, 1 μM, third screening of 25 hit compounds (Table S2)
[14] = Homo sapiens, 10 μM, secondary screening of 87 hit compounds (Table S1)
[15] = Homo sapiens, 10 μM, third screening of 25 hit compounds (Table S2)
[16] = 0.01 μM (first column so headed), third screening of 25 hit compounds (Table S2)
[17] = 0.01 μM (second column so headed), third screening of 25 hit compounds (Table S2)
[18] = 0.1 μM, third screening of 25 hit compounds (Table S2)
[19] = 1 μM, third screening of 25 hit compounds (Table S2)
[20] = 10 μM, third screening of 25 hit compounds (Table S2)

Row | Compound | Invasion rates (%) of each drug’s multiple concentrations (μM) [1] [%] | Invasion rates (%) of each drug’s multiple concentrations (μM) [2] [%] | Invasion rates (%) of each drug’s multiple concentrations (μM) [3] [%] | Invasion rates (%) of each drug’s multiple concentrations (μM) [4] [%] | Invasion rates (%) of each drug’s multiple concentrations (μM) [5] [%] | activity at 0.01 µM [6] [%] | activity at 0.01 µM [7] [%] | activity at 0.01 µM [8] [%] | activity at 0.01 µM [9] [%] | activity at 0.1 µM [10] [%] | activity at 0.1 µM [11] [%] | activity at 1 µM [12] [%] | activity at 1 µM [13] [%] | activity at 10 µM [14] [%] | activity at 10 µM [15] [%] | also measured
1 | Spiramycin | 90.26 | 91.77 | 85.48 | 80.28 | 55.32 |  |  |  |  |  |  |  |  |  |  | 
2 | CC(C)C[C@H](NC(=O)CNC(=O)c1cc(Cl)ccc1Cl)B1OC(=O)C(CC(=O)O)(CC(=O)O)O1 [Ixazomib citrate] |  |  |  |  |  | 69.8 | 100 | 81.3 | 96.7 | 26.9 | 91.4 | 1.95 | 54.2 | 1.55 | 0.4 | 
3 | C[C@H]1c2cccc(O)c2C(O)=C2C(=O)[C@]3(O)C(O)=C(C(N)=O)C(=O)[C@@H](N(C)C)[C@@H]3[C@@H](O)[C@@H]21 [Doxycycline (hyclate)] | 91.64 | 100.52 | 74.92 | 3.13 | 1.59 |  |  |  |  |  |  |  |  |  |  | Invasion rates (%) of each drug’s multiple concentrations (μM) [16]: 101.94%; Invasion rates (%) of each drug’s multiple concentrations (μM) [17]: 98.24%; Invasion rates (%) of each drug’s multiple concentrations (μM) [18]: 93.64%; Invasion rates (%) of each drug’s multiple concentrations (μM) [19]: 5.76%; Invasion rates (%) of each drug’s multiple concentrations (μM) [20]: 1.58%
4 | CCS(=O)(=O)CCn1c([N+](=O)[O-])cnc1C [Tinidazole] |  |  |  |  |  | 78.9 | 89.2 | 90.7 | 88.2 | 47.1 | 90.2 | 6.59 | 8.88 | 2.67 | 2.87 | 
5 | CO[C@@H]1[C@H](N(C)C(=O)c2ccccc2)C[C@H]2O[C@]1(C)n1c3ccccc3c3c4c(c5c6ccccc6n2c5c31)C(=O)NC4 [Midostaurin] |  |  |  |  |  | 97.5 |  | 98.7 |  | 96 |  | 95.8 |  | 34.3 |  | 
6 | COc1cc([C@@H]2c3cc4c(cc3[C@@H](O[C@@H]3O[C@@H]5CO[C@@H](c6cccs6)O[C@H]5[C@H](O)[C@H]3O)[C@H]3COC(=O)[C@H]23)OCO4)cc(OC)c1O [Teniposide] |  |  |  |  |  | 93.1 |  | 91.8 |  | 85 |  | 77.2 |  | 3.21 |  | 
7 | Cc1nc(Nc2ncc(C(=O)Nc3c(C)cccc3Cl)s2)cc(N2CCN(CCO)CC2)n1 [Dasatinib] |  |  |  |  |  | 46.2 | 95.1 | 49.7 | 97.7 | 37.7 | 83.4 | 37.1 | 71.7 | 15.1 | 0.9 | 
8 | Gramicidin |  | 107.53 | 94.19 | 93.53 | 0.41 |  |  |  |  |  |  |  |  |  |  | 
9 | CN(C)c1cc(NC(=O)CNC(C)(C)C)c(O)c2c1C[C@H]1C[C@H]3[C@H](N(C)C)C(=O)C(C(N)=O)=C(O)[C@@]3(O)C(=O)C1=C2O.CS(=O)(=O)O.CS(=O)(=O)O.CS(=O)(=O)O.CS(=O)(=O)O [Tigecycline (tetramesylate)] | 59.60 | 77.93 | 4.93 | 4.75 | 8.35 |  |  |  |  |  |  |  |  |  |  | Invasion rates (%) of each drug’s multiple concentrations (μM) [16]: 89.06%; Invasion rates (%) of each drug’s multiple concentrations (μM) [17]: 89.80%; Invasion rates (%) of each drug’s multiple concentrations (μM) [18]: 88.10%; Invasion rates (%) of each drug’s multiple concentrations (μM) [19]: 2.36%; Invasion rates (%) of each drug’s multiple concentrations (μM) [20]: 1.12%
10 | C/C(=C\C(=O)OCCCCCCCCC(=O)O)C[C@@H]1OC[C@H](C[C@@H]2O[C@H]2[C@@H](C)[C@H](C)O)[C@@H](O)[C@H]1O [Mupirocin] |  |  |  |  |  | 95.2 |  | 98 |  | 95.3 |  | 80 |  | 5.95 |  | 
11 | COc1cccc2c1C(=O)c1c(O)c3c(c(O)c1C2=O)C[C@@](O)(C(=O)CO)C[C@@H]3O[C@H]1C[C@H](N)[C@H](O)[C@H](C)O1.Cl [Doxorubicin (hydrochloride)] | 93.34 | 92.49 | 89.01 |  | 1.92 |  |  |  |  |  |  |  |  |  |  | 
12 | Cc1ncc([N+](=O)[O-])n1C[C@@H](CN1CCOCC1)OP(=O)(O)O [Dextrorotation nimorazole phosphate ester] | 97.64 | 99.79 | 97.40 | 85.31 | 35.28 |  |  |  |  |  |  |  |  |  |  | 
13 | CO[C@@]12[C@H](COC(N)=O)C3=C(C(=O)C(C)=C(N)C3=O)N1C[C@@H]1N[C@@H]12 [Mitomycin C] |  |  |  |  |  | 4.12 | 41.6 | 39.7 | 93.2 | 4.9 | 2.22 | 3.56 | 1.49 | 2.5 | 0.24 | inhibition at 0.1 µM (Homo sapiens, at 0.1 μM, read-out: inhibition of cell invasion): > 50%
14 | CN(C)[C@@H]1C(O)=C(C(N)=O)C(=O)[C@@]2(O)C(O)=C3C(=O)c4c(O)cccc4[C@@](C)(O)[C@H]3C[C@@H]12.Cl [Tetracycline (hydrochloride)] | 84.87 | 95.46 | 83.74 | 67.27 | 2.14 |  |  |  |  |  |  |  |  |  |  | 
15 | CS(=O)(=O)O.C[C@H]1NCc2cc(-c3ccc4c(=O)c(C(=O)O)cn(C5CC5)c4c3OC(F)F)ccc21.O [Garenoxacin (Mesylate hydrate)] | 89.65 | 95.96 | 85.98 | 96.56 | 48.76 |  |  |  |  |  |  |  |  |  |  | 
16 | CN(C)[C@@H]1C(=O)C(C(N)=O)=C(O)[C@@]2(O)C(=O)C3=C(O)c4c(O)ccc(Cl)c4[C@@](C)(O)[C@H]3C[C@@H]12.Cl [Chlortetracycline (hydrochloride)] | 99.62 | 99.02 | 97.93 | 95.42 | 45.01 |  |  |  |  |  |  |  |  |  |  | 
17 | CC(C)C[C@H](NC(=O)[C@H](Cc1ccccc1)NC(=O)c1cnccn1)B(O)O [Bortezomib] |  |  |  |  |  | 29.5 | 84.3 | 75.3 | 92.8 | 5.79 | 66.1 | 4.37 | 35.3 | 0.98 | 9.72 | 
18 | CC1CS(=O)(=O)CCN1/N=C/c1ccc([N+](=O)[O-])o1 (stereo not drawn) [Nifurtimox] |  |  |  |  |  | 96.2 | 97 | 96.2 | 97.5 | 78.6 | 93.5 | 32.4 | 5.05 | 1.95 | 0.53 | 
